Measurements taken from patent EP2567959B1, “6-(4-HYDROXY-PHENYL)-3-STYRYL-1H-PYRAZOLO[3,4-B]PYRIDINE-4-CARBOXYLIC ACID AMIDE DERIVATIVES AS KINASE INHIBITORS” (SANOFI, priority 2011, dated 2013).

These compounds were tested against T1, human full-length recombinant PKC βII (Homo sapiens, UniProt P05771) (assay: Determination of PKC βII inhibition (Caliper mobility-shift kinase assay, phosphorylation of fluorescein peptide substrate)). Conditions: final compound concentration 1.14 µM (±0.15 µM); 60 min incubation at 32 °C.
T1 construct: Active human full-length recombinant PKC βII; purchased Invitrogen GmbH, Darmstadt, Germany
T1 sequence (P05771 1-673 isoform P05771-2): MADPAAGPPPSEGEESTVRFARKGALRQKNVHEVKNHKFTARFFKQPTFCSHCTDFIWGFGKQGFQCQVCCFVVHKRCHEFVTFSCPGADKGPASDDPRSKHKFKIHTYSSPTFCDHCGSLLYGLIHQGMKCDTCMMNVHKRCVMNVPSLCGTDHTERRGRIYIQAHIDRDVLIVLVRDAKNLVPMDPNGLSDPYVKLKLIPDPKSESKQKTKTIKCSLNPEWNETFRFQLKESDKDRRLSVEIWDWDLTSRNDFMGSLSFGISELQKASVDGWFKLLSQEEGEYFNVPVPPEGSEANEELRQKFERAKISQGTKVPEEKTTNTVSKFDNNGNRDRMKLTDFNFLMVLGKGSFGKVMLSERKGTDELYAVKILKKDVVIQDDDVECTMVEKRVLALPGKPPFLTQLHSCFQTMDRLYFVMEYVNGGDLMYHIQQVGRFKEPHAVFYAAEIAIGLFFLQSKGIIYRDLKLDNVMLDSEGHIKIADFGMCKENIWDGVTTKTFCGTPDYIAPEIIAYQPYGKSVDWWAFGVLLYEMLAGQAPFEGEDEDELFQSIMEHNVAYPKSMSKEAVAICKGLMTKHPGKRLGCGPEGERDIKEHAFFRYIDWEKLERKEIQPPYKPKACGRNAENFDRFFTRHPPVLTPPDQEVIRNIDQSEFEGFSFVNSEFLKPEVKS
Type: biochemical
Experimental: Determination of PKC βII inhibition
PKC βII inhibition was determined according to the following protocol:
Active human full-length recombinant PKC βII and the peptide substrate, Fluorescein-RFARKGSLRQKNV, were purchased from Invitrogen GmbH, Darmstadt, Germany. Adenosine-5'-triphosphate (ATP), bovine serum albumine (BSA), dimethylsulphoxide (DMSO), 4-(2-hydroxyethyl)piperazine-1-ethanesulfonic acid (Hepes), Triton X-100, 1,2-Dioleoyl-sn-glycerol (DAG), L-α-Phosphatidyl-L-serine (PS), calcium chloride (CaCl2), and Pluronic F-68 were purchased from Sigma-Aldrich, Munich, Germany. Magnesium chloride, 1 M sodium hydroxide solution, 1M hydrochloric acid solution and EDTA were obtained from Merck Biosciences, Darmstadt, Germany.
Test compounds were diluted to three times the test concentration in buffer 1 (30 mM Hepes-NaOH, pH 7.4, 0.01 % Pluronic F-68 and 3 % (v/v) DMSO). The PKC βII enzyme was diluted to a concentration of 30 ng/ml in buffer 2 (30 mM Hepes-NaOH, pH 7.4, 15 mM MgCl2,150 µM CaCl2, 150 µg/ml PS, 60 µg/ml DAG, and 0.045 % (w/v) Triton X-100). The peptide substrate and ATP were diluted to concentrations of 3 µM and 120 µM, respectively, in buffer 2. Two µl of the compound solution were mixed with 2 µl of the diluted enzyme in a 384-well small volume microtiter plate (Greiner, Bio-One, Frickenhausen, Germany), and the kinase reaction was initiated by addition of 2 µl of the solution containing peptide substrate and ATP. After 60 min incubation at 32 °C, the reaction was stopped by addition of 20 µl of a solution containing 130 mM Hepes-NaOH, pH 7.4, 0.0195 % (v/v) Brij-35, 6.5 mM EDTA, 0.13 % chip coating reagent 3 (Caliper Lifescience Inc, Hopkinton, MA) and 6.5 % (v/v) DMSO. Phosphorylation of the substrate peptide was then detected on a Caliper 3000 instrument essentially as described by Pommereau et al (J. Biomol. Screening 2004, 9(5), 409-416). Separation conditions were as follows: Pressure -0.8 psi, upstream voltage - 3000 V, downstream voltage -800 V. Positive controls (buffer 1 instead of compound) and negative controls (buffer 1 instead of compound and buffer 2 instead of kinase solution) were run in parallel on each plate. Fractional turnover (R) was determined as the height of the peak of the phosphorylated peptide product divided by the sum of the unphosphorylated substrate and phosphorylated product peak heights. Percent-inhibition values for the test compounds were determined using the formula % Inhibition = 100*(1-(Rcompound-Rnegative control)/(Rpositive control-Rnegative control). [formula]
In the following table % inhibition values observed with example compounds at a final concentration of 1.14 µM (±0.15 µM) are listed: […]
Compound O=C(c1cc(-c2ccc(O)cc2)nc2[nH]nc(/C=C/c3ccc(OC(F)(F)F)cc3)c12)N1CCNCC1 [Example 58, {6-(4-Hydroxyphenyl)-3-[(E)-2-(4-trifluorome-thoxy-phenyl)-vinyl]-1H-pyrazo-lo[3,4-b]pyridin-4-yl}-piperazin-1-yl-methanone] has an inhibition at 1.14 µM of 89%. Work on O=C(c1cc(-c2ccc(O)cc2)nc2[nH]nc(/C=C/c3cccc(C(F)(F)F)c3)c12)N1CCNCC1 [Example 46, {6-(4-Hydroxy-phenyl)-3-[(E)-2-(3-trifluoromethylphenyl)-vinyl]-1 H-pyrazolo[3,4-b]pyridin-4-yl}-piperazin-1-yl-methanone] yielded an inhibition at 1.14 µM of 97%. With CS(=O)(=O)c1cccc(/C=C/c2n[nH]c3nc(-c4ccc(O)cc4)cc(C(=O)N4CCNCC4)c23)c1 [Example 22, {6-(4-hydroxy-phenyl)-3-[(E)-2-(3-methanesulfonyl-phenyl)-vinyl]-1H-pyrazolo[3,4-b]-pyridin-4-yl}-piperazin-1-yl-methanone] the inhibition at 1.14 µM was 100%. For O=C(c1cc(-c2ccc(O)cc2)nc2[nH]nc(CCc3ccccc3)c12)N1CCNCC1 [Example 17, [6-(4-Hydroxy-phenyl)-3-phenethyl-1H-pyrazolo[3,4-b]pyridin-4-yl]-piperazin-1-yl-methanone], the inhibition at 1.14 µM was 94%. With O=C(c1cc(-c2ccc(O)cc2)nc2[nH]nc(/C=C/c3cccc(F)c3)c12)N1CCNCC1 [Example 71, [3-[(E)-2-(3-Fluoro-phenyl)-vinyl]-6-(4-hydroxy-phenyl)-1H-pyrazolo[3,4-b]pyridin-4-yl]-piperazin-1-yl-methanone] the inhibition at 1.14 µM was 96%. Cc1cc(/C=C/c2n[nH]c3nc(-c4ccc(O)cc4)cc(C(=O)N4CCNCC4)c23)ccc1O [Example 47, [3-[(E)-2-(4-Hydroxy-3-methyl-phenyl)-vinyl]-6-(4-hydroxy-phenyl)-1H-pyrazolo[3,4-b]pyridin-4-yl]-piperazin-1-yl-methanone] was tested, and the inhibition at 1.14 µM was 98%. Cc1cc(F)ccc1/C=C/c1n[nH]c2nc(-c3ccc(O)cc3)cc(C(=O)N3CCNCC3)c12 [Example 61, [3-[(E)-2-(4-Fluoro-2-methyl-phenyl)-vinyl]-6-(4-hydroxy-phenyl)-1H-pyrazolo[3,4-b]pyridin-4-yl]-piperazin-1-yl-methanone] showed an inhibition at 1.14 µM of 86%. Compound CCCC[C@H]1CNCCN1C(=O)c1cc(-c2ccc(O)cc2)nc2[nH]nc(/C=C/c3ccccc3)c12 [Example 76, ((S)-2-Butyl-piperazin-1-yl)-[6-(4-hydroxy-phenyl)-3-((E)-styryl)-1H-pyra-zolo[3,4-b]-pyridin-4-yl]-methanone] has an inhibition at 1.14 µM of 57%. Compound COCCC(=O)N1CCN(C(=O)c2cc(-c3ccc(O)cc3)nc3[nH]nc(/C=C/c4ccccc4)c23)CC1 [Example 88, 1-{4-[6-(4-Hydroxy-phenyl)-3-((E)-styryl)-1H-pyrazolo[3,4-b]-pyridine-4-carbonyl]-piperazin-1-yl}-3-methoxy-propan-1-one] has an inhibition at 1.14 µM of 89%. In the case of O=C(c1cc(-c2ccc(O)cc2Cl)nc2[nH]nc(/C=C/c3ccccc3)c12)N1CCNCC1 [Example 13, [6-(2-Chloro-4-hydroxy-phenyl)-3-((E)-styryl)-1 H-pyrazolo[3,4-b]pyridin-4-yl]-piperazin-1-yl-methanone], the inhibition at 1.14 µM is reported as 110%. CN(C)C(=O)c1cccc(/C=C/c2n[nH]c3nc(-c4ccc(O)cc4)cc(C(=O)N4CCNCC4)c23)c1 [Example 31, 3-{(E)-2-[6-(4-Hydroxy-phenyl)-4-(piperazine-1-carbonyl)-1H-py-razolo[3,4-b]py-ridin-3-yl]-vinyl}-N,N-dimethyl-benzamide] gave an inhibition at 1.14 µM of 99%. Compound O=C(c1cc(-c2ccc(O)cc2)nc2[nH]nc(/C=C/c3ccccc3)c12)N1CCNCC1 [Example 2, [6-(4-Hydroxy-phenyl)-3-((E)-styryl)-1H-pyrazolo[3,4-b]pyridin-4-yl]-piperazin-1-yl-methanone] has an inhibition at 1.14 µM of 97%. Work on COc1ccc(/C=C/c2n[nH]c3nc(-c4ccc(O)cc4)cc(C(=O)N4CCNCC4)c23)cc1C [Example 73, {6-(4-Hydroxy-phenyl)-3-[(E)-2-(4-methoxy-3-methyl-phenyl)-vinyl]-1H-pyrazolo[3,4-b]pyridin-4-yl}-piperazin-1-yl-methanone] yielded an inhibition at 1.14 µM of 98%. With O=C(c1cc(-c2ccc(O)cc2)nc2[nH]nc(/C=C/c3ccc(C(F)(F)F)cc3)c12)N1CCNCC1 [Example 42, {6-(4-Hydroxy-phenyl)-3-[(E)-2-(4-trifluoromethylphenyl)-vinyl]-1 H-pyrazolo[3,4-b]pyridin-4-yl}-piperazin-1-yl-methanone] the inhibition at 1.14 µM was 66%. With COc1ccccc1/C=C/c1n[nH]c2nc(-c3ccc(O)cc3)cc(C(=O)N3CCNCC3)c12 [Example 60, {6-(4-hydroxy-phenyl)-3-[(E)-2-(2-methoxy-phenyl)-vinyl]-1H-pyrazolo[3,4-b]pyridin-4-yl}-piperazin-1-yl-methanone] the inhibition at 1.14 µM was 98%. O=C(c1cc(-c2ccc(O)cc2)nc2[nH]nc(CCC3CCCCC3)c12)N1CCNCC1 [Example 36, [3-(2-cyclohexyl-ethyl)-6-(4-hydroxy-phenyl)-1H-pyrazolo[3,4-b]pyridin-4-yl]-piperazin-1-yl-methanone] gave an inhibition at 1.14 µM of 81%. In the case of CC(C)C[C@H]1CN(C(=O)c2cc(-c3ccc(O)cc3)nc3[nH]nc(/C=C/c4ccccc4)c23)CCN1 [Example 5, [6-(4-Hydroxy-phenyl)-3-((E)-styryl)-1H-pyrazolo[3,4-b]pyridin-4-yl]-((S)-3-isobutyl-piperazin-1-yl)-methanone], the inhibition at 1.14 µM is reported as 85%. For O=C(c1cc(-c2ccc(O)cc2)nc2[nH]nc(/C=C/c3ccc4c(c3)CCO4)c12)N1CCNCC1 [Example 64, [3-[(E)-2-(2,3-Dihydrobenzofuran-5-yl)-vinyl]-6-(4-hydroxy-phenyl)-1H-pyrazolo[3,4-b]pyridin-4-yl]-piperazin-1-yl-methanone], the inhibition at 1.14 µM was 99%. Compound O=C(c1cc(-c2ccc(O)cc2)nc2[nH]nc(/C=C/c3cccc(N4CCCC4)c3)c12)N1CCNCC1 [Example 28, {6-(4-Hydroxy-phenyl)-3-[(E)-2-(3-pyrrolidin-1-yl-phenyl)-vinyl]-1H-pyrazolo[3,4-b]pyridin-4-yl}-piperazin-1-yl-methanone] has an inhibition at 1.14 µM of 94%. In the case of CS(=O)(=O)Cc1cccc(/C=C/c2n[nH]c3nc(-c4ccc(O)cc4)cc(C(=O)N4CCNCC4)c23)c1 [Example 15, {6-(4-Hydroxy-phenyl)-3-[(E)-2-(3-methanesulfonylmethyl-phenyl)-vinyl]-1H-pyrazolo[3,4-b]pyridin-4-yl}-piperazin-1-yl-methanone], the inhibition at 1.14 µM is reported as 99%. CN(C)C(=O)CN1CCN(C(=O)c2cc(-c3ccc(O)cc3)nc3[nH]nc(/C=C/c4ccccc4)c23)CC1 [Example 84, 2-{4-[6-(4-Hydroxy-phenyl)-3-((E)-styryl)-1H-pyrazolo[3,4-b]-pyridine-4-carbo-nyl]-piperazin-1-yl}-N,N-dimethyl-acetamide] gave an inhibition at 1.14 µM of 54%. CCCC[C@@H]1CNCCN1C(=O)c1cc(-c2ccc(O)cc2)nc2[nH]nc(/C=C/c3ccccc3)c12 [Example 77, ((R)-2-Butyl-piperazin-1-yl)-[6-(4-hydroxy-phenyl)-3-((E)-styryl)-1H-pyra-zolo[3,4-b]-pyridin-4-yl]-methanone] showed an inhibition at 1.14 µM of 79%. N#Cc1cccc(/C=C/c2n[nH]c3nc(-c4ccc(O)cc4)cc(C(=O)N4CCNCC4)c23)c1 [Example 25, 3-{(E)-2-[6-(4-Hydroxy-phenyl)-4-(piperazine-1-carbonyl)-1H-pyrazolo[3,4-b]pyridin-3-yl]-vinyl}-benzonitrile] gave an inhibition at 1.14 µM of 99%. CC(C)(CO)C(=O)N1CCN(C(=O)c2cc(-c3ccc(O)cc3)nc3[nH]nc(/C=C/c4ccccc4)c23)CC1 [Example 87, 3-Hydroxy-1-{4-[6-(4-hydroxy-phenyl)-3-((E)-styryl)-1H-pyra-zolo[3,4-b]pyri-dine-4-carbonyl]-piperazin-1-yl}-2,2-dimethyl-propan-1-one] gave an inhibition at 1.14 µM of 94%. O=C(c1cccnc1)N1CCN(C(=O)c2cc(-c3ccc(O)cc3)nc3[nH]nc(/C=C/c4ccccc4)c23)CC1 [Example 83, [6-(4-Hydroxy-phenyl)-3-((E)-styryl)-1H-pyra-zolo[3,4-b]pyri-din-4-yl]-[4-(pyridine-3-carbonyl)-piperazin-1-yl]-methanone] gave an inhibition at 1.14 µM of 90%.
